Measured values reported in the NIST ThermoML archive (doi:10.1016/j.jct.2019.01.015).
± gives the expanded uncertainty stated by the source.

Legend:
[1] = Molar enthalpy of transition or fusion; conditions: Crystal; DSC
[2] = Crystal; DSC

Molar enthalpy of transition or fusion [1]: 2.55 ± 0.0884 kcal/mol | Triple point temperature [2]: 402.15 ± 1 K
Compound: C=NCC#N [methyleneaminoacetonitrile]
